Test results: patent US20090191173A1, “Induction Of Neurogenesis And Stem Cell Therapy In Combination With Copolymer 1” (priority 2004, published 2009)

Columns and labels:
EAE mice [1] = assay: Clinical manifestations of MOG 35-55-induced EAE; type: in vivo; conditions: 5-8 daily s.c. injections 2 mg/mouse; prevention, suppression or delayed suppression
EAE mice [2] = system: EAE mice
Experimental: GA treatment was applied by 5-8 consecutive daily subcutaneous injections (2 mg/mouse) in different stages of disease [i.e., (1) starting immediately after EAE induction (prevention treatment), (2) starting after appearance of disease manifestations at day 20 (suppression treatment), or (3) starting during the chronic phase 45 days after induction (delayed suppression).
(xl) Perfusion. Animals were deeply anesthetized with Nembutal and perfused transcardially with 2.5% paraformaldehyde. Brains were removed, postfixed in 1% paraformaldehyde and cryoprotected with 15% sucrose solution in PBS. Free-floating sections (16 μm thick) were cut coronally or sagitaly with a sliding microtome (Leica SM 2000r) through the entire brain and collected serially in PBS.
(xli) Immunohistochemistry. To detect BrdU-incorporated cells, sections were denatured in 2M HCl in PBS at 37° C. for 30 min and then neutralized with 0.1M borate buffer (pH 8.5) for 10 min at room temperature. To detect specific cell types, sections were pre-incubated in PBS solution containing 20% serum and 0.5% Triton-X-100 for 1 h, and then incubated overnight at room temperature with primary antibodies. The following primary antibodies were used: goat anti-doublecortin (DCX) C-18 (1:200, Santa Cruz Biotechnology, Santa Cruz, Calif.), mouse anti-NeuN (1:300, Chemicon, Temecula, Calif.), mouse anti-GFAP (1:100, Pharmingen, San Jose, Calif.), rabbit anti-phospho-histone (1:200, Upstate Biotechnology, Charlottesville, Va.), rat anti-BrdU (1:200, Harlan, Indianapolis, Ind.), rat anti-CD11b (1:50, Pharmingen) and chicken anti-BDNF (1:50, Promega, Madison, Wis.). […]
(xlii) Microscopy. Stained sections were examined and photographed by a confocal microscope (Axiovert 100M; Zeiss, Oberkochen, Germany), or by a fluorescence microscope (E600; Nikon, Tokyo, Japan), equipped with Plan Fluor objectives connected to CCD camera (DMX1200F, Nikon). Digital images were collected and analyzed using Image Pro+software. […]

APP/PS1 Tg mice [3] = assay: Morris water maze (MWM) in APP/PS1 double-transgenic AD mice; type: in vivo, mouse; conditions: GA (TV-5010) s.c. vaccination, tested five weeks after first injection
EAE mice [4] = assay: Proliferation, migration and differentiation of neuronal progenitor cells in EAE mice (BrdU, DCX, NeuN); type: in vivo, mouse
Experimental: (xxxix) BrdU. 5-Bromo-2′-deoxyuridine (BrdU, Sigma), a thymidine analog incorporating into the DNA of dividing cells, was injected intraperitoneally (50 mg/kg), either concurrently with GA treatment (once each day), or immediately after completion of GA injections (twice each day).
(xli) Immunohistochemistry. […] Control slides were incubated with secondary antibody alone.
(xliii) Quantification. […] Quantification was performed in coronal sections, in the SVZ starting at the level of the medial septum and 640 μm backward, and in the hippocampal DG (in both blades for BrdU/DCX or in the upper blade for DCX) through its septotemporal axis. Quantification in the RMS was done on sagital sections starting at 1 mm from the median line of the brain and 640 μm laterally. The Results for each brain structure were averaged from 8 unilateral levels per mouse (80 μm apart, 3-4 mice in each treatment group) and are expressed as change fold from naive controls. Quantification of BrdU/NeuN double positive cells in the cortex was performed in areas of 0.15 mm^2, selected at random (10 sections counted/mouse, 3 mice in each treatment group).
(xliv) Statistical analysis. For BrdU and DCX analysis, the mean±SEM (averaged from 8 unilateral levels per mouse, 3-4 mice in each treatment group) was subjected to one-way analysis of variance (ANOVA), followed by Fishers' least significant difference (LSD) at comparison-wise error rate of 0.05, where appropriate. Since control values for BrdU incorporation were reduced as a function of time, results were expressed as change fold from naive controls injected concurrently with BrdU. The number of BrdU/NeuN double-positive cells in the cortex was averaged from 10 sections per mouse (3 mice in each treatment group) and expressed as cells per mm^3.

APP/PS1 Tg mice [5] = assay: Hippocampal immunohistochemistry in APP/PS1 Tg mice (Aβ plaques, microglia, NeuN, BrdU, DCX); type: in vivo, mouse
Experimental: (xxii) Glatiramer acetate vaccination. Each mouse was subcutaneously injected five times with a total of 100 μg of glatiramer acetate (GA (TV-5010), MW 13.5-18.5 kDa, average 16 kDa, Teva Pharmaceutical Industries Ltd., Petach Tikva, Israel), emulsified in 200 μl PBS×1, from experimental day 0 until day 24, twice during the first week and once a week thereafter.
(xxiv) Administration of BrdU and tissue preparation. BrdU was dissolved by sonication in PBS and injected i.p. into each mouse (50 mg/kg body weight; 1.25 mg BrdU in 200 μl PBS×1). Starting from experimental day 22 after the first GA vaccination, BrdU was injected i.p. twice daily, every 12 h for 2.5 days, to label proliferating cells. Three weeks after the first BrdU injection the mice were deeply anesthetized and perfused transcardially, first with PBS and then with 4% paraformaldehyde. The whole brain was removed, postfixed overnight, and then equilibrated in phosphate-buffered 30% sucrose. Free-floating 30-μm sections were collected on a freezing microtome (Leica SM2000R) and stored at 4° C. prior to immunohistochemistry.
For immunohistochemistry, tissue sections were treated with a permeabilization/blocking solution containing 10% FCS, 2% bovine serum albumin, 1% glycine, and 0.05% Triton X-100 (Sigma-Aldrich, St. Louis). Tissue sections were stained overnight at 4° C. with specified combinations of the following primary antibodies: rat anti-BrdU (1:200; Oxford Biotechnology, Kidlington, Oxfordshire, UK), goat anti-DCX [doublecortin] (1:400; Santa Cruz Biotechnology), and mouse anti-NeuN [neuronal nuclear protein] (1:200; Chemicon, Temecula, Calif.). Secondary antibodies were FITC-conjugated donkey anti-goat, Cy-3-conjugated donkey anti-mouse, and Cy-3- or Cy-5-conjugated donkey anti-rat (1:200; Jackson ImmunoResearch, West Grove, Pa.). For labeling of microglia we used either CD11b (MAC1; 1:50; BD-Pharmingen) or FITC-conjugated Bandeiraea simplicifolia isolectin B4 (IB4, 1:50; Sigma-Aldrich, Rehovot). To detect expression of cell-surface MHC-II proteins we used anti-MHC-II Abs (rat, clone IBL-5/22; 1:50; Chemicon, Temecula, Calif.). To detect expression of human Aβ we used anti-Aβ (human amino-acid residues 1-17) (mouse, clone 6E10, Chemicon, Temecula, Calif.). Expression of IGF-I was detected by goat anti-IGF-I Abs (1:20; R&D Systems). Expression of TNF-α was detected by goat anti-TNF-α Abs (1:100; R&D Systems). T cells were detected with anti-CD3 polyclonal Abs (rabbit, 1:100; DakoCytomation, Calif.). Propidium iodide (1 μg/ml; Molecular Probes, Invitrogen, Carlsbad, Calif.) was used for nuclear staining.
For in-vivo experiments, the number of Aβ^+ plaques and CD11b^+/IB-4^+ microglia in the hippocampus were counted at 300-μm intervals from 6-8 coronal sections (30 μm) from each mouse. Neurogenesis in the DG was evaluated by counting of premature neurons (DCX^+), proliferating cells (BrdU^+), and newly formed mature neurons (BrdU^+/NeuN^+) in six coronal sections (30 μm) from each mouse. Specificity of BrdU^+/NeuN^+ co-expression was assayed using the confocal microscope (LSM 510) in optical sections at 1-μm intervals/. Cell counts, numbers of Aβ^+ plaques, plaque areas, and intensity of NeuN staining per unit area in the DG were evaluated automatically using Image-Pro Plus 4.5 software (Media Cybernetics).

[6] = EAE+GA mice, one month after completion of GA treatment
[7] = GA vaccinated vs untreated Tg mice

glatiramer acetate [GA]
clinical manifestations of EAE (EAE mice [1]): ameliorated the clinical manifestations of EAE regardless of the stage in which it was administered | MAC-1 expression (microglial activation) (EAE mice [2]; EAE+GA vs EAE mice): significantly reduced | neuronal damage in brain (EAE mice [2]; EAE+GA vs EAE mice, prevention or suppression treatment): considerably less damage | neuronal malformations or perivascular infiltrations (EAE mice [2]; mouse, in vivo): did not find neuronal malformations or perivascular infiltrations | MWM performance (spatial learning/memory) (APP/PS1 Tg mice [3]): superior to that of the untreated Tg mice | migration of neuronal progenitors outside the RMS (EAE mice [4]; EAE mice treated with GA): migration into a region corresponding to the lateral cortical stream (LCS) | neuronal proliferation in the hippocampus (BrdU incorporation, DCX expression) (EAE mice [4]; EAE+GA mice): increased proliferation | BDNF expression by migrating DCX+ cells (EAE mice [4]; EAE+GA mice, nucleus accumbens and hippocampus): manifested extensive expression of BDNF | BrdU+/NeuN+ cells as share of all NeuN+ cells in the cortex (EAE mice [4]; [6]): 1.3% | BrdU+/NeuN+ double-labeled cells in the cortex (EAE mice [4]; [6]): 128±46 /mm^3 | progenitors migrating to lesions (EAE mice [4]; EAE+GA vs EAE mice): much higher | neuronal proliferation in the SVZ (EAE mice [4]; EAE+GA vs untreated EAE mice and controls): augmented neuronal proliferation in the SVZ | BrdU or DCX expression in SVZ and DG (EAE mice [4]; GA injection to naive mice (without EAE)): did not result in significant elevation | BrdU expression in the RMS, increase over EAE mice (EAE mice [4]; GA on days 20-25 (suppression)): 2.2 fold | BrdU expression in the RMS, increase over control (EAE mice [4]; GA on days 20-25 (suppression)): 7.8 fold | DCX expression in the RMS, increase over EAE mice (EAE mice [4]; GA on days 20-25 (suppression)): 1.6 fold | DCX expression in the RMS, increase over control (EAE mice [4]; GA on days 20-25 (suppression)): 2.6 fold | mobilization of progenitors into the RMS (EAE mice [4]; injection of GA alone (no EAE)): enhanced mobilization of progenitors into the RMS, but to a lower extent | increase of new neurons in the cortex over EAE mice (EAE mice [4]; one month after completion of GA treatment): 2.6 fold | DCX expression in the SVZ, elevation over EAE and control (EAE mice [4]; prevention treatment): 4 fold | number of Aβ plaques (APP/PS1 Tg mice [5]; GA (TV-5010) vaccinated vs untreated Tg mice, 6 weeks later): significantly fewer plaques | BrdU+ cells in the dentate gyrus (APP/PS1 Tg mice [5]; [7]): significantly more BrdU^+ cells | CD11b+ microglia (APP/PS1 Tg mice [5]; [7]): significantly fewer CD11b^+ microglia | area occupied by the plaques (APP/PS1 Tg mice [5]; [7]): significantly smaller | staining for NeuN (APP/PS1 Tg mice [5]; [7]): significantly more intense staining for NeuN | MHC-II expression by microglia (APP/PS1 Tg mice [5]; GA-vaccinated Tg mice): most of the microglia adjacent to residual Aβ^+ plaques expressed MHC-II | DCX+ cells in the DG (APP/PS1 Tg mice [5]; relative to non-Tg littermates): slightly but significantly more
